# Laboratory results taken from patent EP4596534A1, “NONCOVALENT SMALL-MOLECULE INHIBITORS OF THE KEAP1-NRF2 INTERACTION” (University of Copenhagen, priority 2024, dated 2025).
# Target: T1, human Keap1 Kelch domain (Homo sapiens, UniProt Q14145)
# T1 construct: human Keap1 Kelch domain (residue 321-609, UniProt Q14145); made in house; host or cells: Escherichia coli BL21 (DE3) pLysS, pRSET A vector
# Assay: Heterologous competition fluorescence polarization (FP) binding assay, Cy5-Nrf2 peptide probe
# Conditions: mean ± SEM of at least 3 individual measurements; Keap1 Kelch 14 nM, Cy5-Nrf2 probe 3 nM, 4% DMSO
# Experimental: The assay was performed in a 1 × HBSTET buffer (10 mM HEPES, 150 mM NaCl, 0.005% Tween20, 3 mM ethylenediaminetetraacetic acid (EDTA), 1 mM TCEP, pH = 7.4) using black flat-bottom 384-well plates (Corning Life Sciences, NY), a volume of 30 µL/well, and a final DMSO concentration of 4% or 8%. The assay plate was spun down to ascertain proper mixing and removal of potential air bubbles and incubated for 10-15 min at room temperature before measuring the FP levels on a Safire2 plate reader (Tecan, Männedorf, Switzerland). The g-factor was adjusted at each experiment so that a series of three blank wells containing probe but no Keap1 Kelch defined the baseline FP value. The Cy5-Nrf2 probe was measured at excitation/emission values of 635:670 nm. The FP values were fitted to the one-site specific binding equation: Y = Bmax × X/(Kd + X), with Bmax being the maximal FP value, X the Keap1 Kelch concentration, and Y the variable FP values. The Kd values were derived from the resulting binding saturation curve as being equal to the Keap1 Kelch concentration, where the curve is half-saturated.
# The affinities between nonfluorescent small molecule Keap1 inhibitors and Keap1 Kelch were determined as Ki values in a heterologous competition FP binding assay. […] FP values were fitted to the equation Y = Bottom + (Top- Bottom)/[1 + (10^HillSlope×(log IC50-X))], where X is the logarithmic value of compound concentration. Hereby, the IC50 value was obtained, which together with the Kd value and probe and Keap1 Kelch concentrations was used to calculate the theoretical competitive inhibition constant, the Ki value.^43 Ki values are shown as mean ± SEM (standard error of mean) if based on two or more individual measurements.
# T1 sequence (Q14145 321-609): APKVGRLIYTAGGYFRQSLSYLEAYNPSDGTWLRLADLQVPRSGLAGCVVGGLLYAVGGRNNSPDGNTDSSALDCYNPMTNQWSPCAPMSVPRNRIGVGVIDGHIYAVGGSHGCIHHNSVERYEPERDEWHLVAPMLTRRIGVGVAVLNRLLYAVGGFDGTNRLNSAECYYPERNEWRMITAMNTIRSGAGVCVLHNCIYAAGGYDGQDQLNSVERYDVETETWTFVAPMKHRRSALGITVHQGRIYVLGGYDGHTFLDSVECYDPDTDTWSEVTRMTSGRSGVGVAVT
row,Ki [nM],Compound
1,3600 ± 400,"CCOc1ccc(S(=O)(=O)N2Cc3ccc(C(NC(=O)c4cccc5c4-c4ccccc4C5=O)C(=O)O)cc3C2)cc1C#N (stereo not shown) [Compound K50, 2-(2-((3-cyano-4-ethoxyphenyl)sulfonyl)isoindolin-5-yl)-2-(9-oxo-9H-fluorene-4-carboxamido)acetic acid]"
2,170 ± 40,"CCOc1ccc(S(=O)(=O)N2CCc3ccc(C(NC(=O)c4cccc5c4-c4ccccc4C54SCCS4)C(=O)O)cc3C2)cc1C#N (stereo not shown) [Compound K38, 2-(2-((3-cyano-4-ethoxyphenyl)sulfonyl)-1,2,3,4-tetrahydroisoquinolin-7-yl)-2-(spiro[fluorene-9,2'-[1,3]dithiolane]-4-carboxamido)acetic acid]"
3,590 ± 100,"CCOc1ccc(S(=O)(=O)N2CCc3ccc(C(NC(=O)c4cccc5c4-c4ccccc4C5O)C(=O)O)cc3C2)cc1C#N (stereo not shown) [Compound K32, 2-(2-((3-cyano-4-ethoxyphenyl)sulfonyl)-1,2,3,4-tetrahydroisoquinolin-7-yl)-2-(9-hydroxy-9H-fluorene-4-carboxamido)acetic acid]"
4,930 ± 210,"O=C(O)CC(NC(=O)c1cccc2c1-c1ccccc1C2=O)c1ccc2c(c1)CN(S(=O)(=O)c1ccccc1)CC2 (stereo not shown) [Compound K46, 3-(9-oxo-9H-fluorene-4-carboxamido)-3-(2-(phenylsulfonyl)-1,2,3,4-tetrahydroisoquinolin-7-yl)propanoic acid]"
